The source of these data is patent publication US20220192984A1, “PHARMACEUTICAL COMPOSITIONS COMPRISING OTIC THERAPEUTIC AGENTS AND RELATED METHODS” (Frequency Therapeutics, Inc., priority 2018, published 2022).

Series [1] deals with T1, LSD1 (Homo sapiens, UniProt O60341). The conditions noted are these: Table 18, LSD1; read-out: pKi or IC50 (converted); cited from earlier work.
In a further series the test system is Lgr5+ cells. In words: Lgr5+ Assay (Lgr5+ cell assay in vitro). In kind it is cell-based.
In a further series the test system is gamma secretase. The conditions noted are these: cited from earlier work; for Lit cell conc: Table 23.
The nature of series [2]: Reconstitution time of lyophilized compositions (Tables E, 28, 35). In kind it is physicochemical. The following applies: for Reconstitution time (minutes) water + DMSO / Reconstitution time (minutes) with water: lyophilized 16.15% P407 with salt at 533.25 mM; for Reconstitution time (minutes) water + DMSO: reconstituted with Diluent ([…] DMSO in water); for Reconstitution time (minutes) with water: reconstituted with water; for reconstitution time of lyophilized poloxamer with added organic acid salt: poloxamer 16.15%, salt 533.25 mM. How it is done: Diluent 1, 0.85 mL+lyophilized cake. […] Gentle tapping on the exterior of the vessel to help the cake dissolve in the Diluent may be required while keeping it in fridge (or ice bath). To avoid degradation of the composition, minimize stirring and/or vortexing.
Diluent 1, 0.95 mL+Placebo cake: Using a syringe, add the Diluent to the Placebo cake, and rest in a fridge or ice bath (2-8° C.) for 60 minutes or until clear solution is formed. Gentle tapping on the exterior of the vessel to help the cake dissolve in the Diluent may be required while keeping it in fridge (or ice bath). To avoid degradation of the composition, minimize stirring and/or vortexing.
Powder P407 (i.e. non-lyophilized) can be obtained from BASF.
Reconstitution of lyophilized P407 (Placebo) and powder P407 was done using 850 μL Diluent (see above for example preparations of a Diluent) in a vial.
Therefore, to probe the effect of salts other than sodium valproate on reconstitution time, a poloxamer solution at 16.15% concentration either alone or including a salt (e.g. an inorganic salt or organic acid salt) at a concentration of 533.25 mM, was lyophilized. The lyophilized material was then reconstituted using Diluent for reconstitution (6.4% DMSO by wt. % in water) or with water.
Building on the results of Examples 14 to 16, further lyophilized compositions were manufactured and had their reconstitution times evaluated. […] The further lyophilized compositions were made in accordance with Example 10, and reconstituted in accordance with Example 12.

Another series deals with EZH2 (Homo sapiens, UniProt Q15910). The conditions noted are these: Table 19, EZH2; read-out: pKi or IC50 (converted); cited from earlier work.
Sequence of EZH2 (Q15910 whole entry, species assumed): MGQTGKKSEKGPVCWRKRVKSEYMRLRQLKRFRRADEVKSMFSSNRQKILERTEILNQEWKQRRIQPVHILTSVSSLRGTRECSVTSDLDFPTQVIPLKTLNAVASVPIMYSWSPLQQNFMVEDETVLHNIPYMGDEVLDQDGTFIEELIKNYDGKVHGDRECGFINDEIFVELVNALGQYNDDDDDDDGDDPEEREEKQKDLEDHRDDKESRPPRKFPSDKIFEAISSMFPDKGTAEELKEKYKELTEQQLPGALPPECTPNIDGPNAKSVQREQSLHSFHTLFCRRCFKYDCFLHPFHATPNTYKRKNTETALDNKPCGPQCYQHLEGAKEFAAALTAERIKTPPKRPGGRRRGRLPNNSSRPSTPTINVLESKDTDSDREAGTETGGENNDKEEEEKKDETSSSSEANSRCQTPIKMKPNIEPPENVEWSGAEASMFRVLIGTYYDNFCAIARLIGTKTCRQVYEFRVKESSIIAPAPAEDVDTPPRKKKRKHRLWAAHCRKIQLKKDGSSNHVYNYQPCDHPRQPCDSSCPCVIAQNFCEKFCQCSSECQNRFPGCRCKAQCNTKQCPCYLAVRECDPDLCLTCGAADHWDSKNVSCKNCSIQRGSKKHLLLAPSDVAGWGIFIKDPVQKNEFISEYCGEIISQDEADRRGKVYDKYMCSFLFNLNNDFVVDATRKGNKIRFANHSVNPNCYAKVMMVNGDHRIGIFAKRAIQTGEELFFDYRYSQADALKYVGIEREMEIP
Sequence of EZH2 (O75530 whole entry partner, species assumed): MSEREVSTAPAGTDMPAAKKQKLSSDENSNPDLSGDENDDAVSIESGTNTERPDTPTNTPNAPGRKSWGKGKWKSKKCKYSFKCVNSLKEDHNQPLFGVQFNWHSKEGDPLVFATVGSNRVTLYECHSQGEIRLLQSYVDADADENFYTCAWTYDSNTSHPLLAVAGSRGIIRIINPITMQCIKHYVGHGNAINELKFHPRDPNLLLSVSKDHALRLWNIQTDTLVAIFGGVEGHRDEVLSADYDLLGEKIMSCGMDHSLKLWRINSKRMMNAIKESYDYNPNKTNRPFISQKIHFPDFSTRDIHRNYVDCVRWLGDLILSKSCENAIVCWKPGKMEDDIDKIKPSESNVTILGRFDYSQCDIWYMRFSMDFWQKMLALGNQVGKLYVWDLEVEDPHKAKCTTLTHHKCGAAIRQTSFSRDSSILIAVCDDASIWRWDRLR
Sequence of EZH2 (Q15022 whole entry partner, species assumed): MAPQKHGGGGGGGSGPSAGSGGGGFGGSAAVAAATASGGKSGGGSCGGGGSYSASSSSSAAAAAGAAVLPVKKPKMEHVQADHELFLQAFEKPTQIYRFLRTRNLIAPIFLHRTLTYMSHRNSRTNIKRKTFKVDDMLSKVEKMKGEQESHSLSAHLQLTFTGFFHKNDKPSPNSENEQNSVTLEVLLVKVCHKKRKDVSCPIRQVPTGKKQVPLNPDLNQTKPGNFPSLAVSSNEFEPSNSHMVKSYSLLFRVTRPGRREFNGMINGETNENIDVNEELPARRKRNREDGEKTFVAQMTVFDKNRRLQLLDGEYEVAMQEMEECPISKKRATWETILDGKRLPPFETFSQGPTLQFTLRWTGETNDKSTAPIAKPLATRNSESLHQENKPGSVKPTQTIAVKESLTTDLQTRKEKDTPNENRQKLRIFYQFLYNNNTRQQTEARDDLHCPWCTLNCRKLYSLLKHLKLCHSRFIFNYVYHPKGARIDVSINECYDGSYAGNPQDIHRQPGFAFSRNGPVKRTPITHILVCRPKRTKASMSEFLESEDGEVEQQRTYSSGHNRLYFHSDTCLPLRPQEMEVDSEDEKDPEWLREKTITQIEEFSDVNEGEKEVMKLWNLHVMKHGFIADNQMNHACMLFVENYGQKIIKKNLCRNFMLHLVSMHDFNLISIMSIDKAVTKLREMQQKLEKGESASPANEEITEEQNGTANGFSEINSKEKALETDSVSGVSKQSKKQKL
Series [3] in a line: Perilymph Conc. listed for agents (Tables 14-25).
The conditions of series [4]: cited from earlier work.
A further series has as its system KDM. The following applies: cited from earlier work.
Series [5] concerns the target T1, LSD1. The following applies: Table 18; cited from earlier work.
The mark [6] stands for this setting: Table 23, Aβ40, read-out: Lit cell conc IC50, Aβ40.
Setting [7] is: Table 23, Aβ42, read-out: Lit cell conc IC50, Aβ42.
Setting [8] is: Table 21, KDM 5, read-out: Select KDM 5.

Like-named read-outs stand apart in the source and are kept apart here.

For `NO` [Hydroxylamine], the IC50 at LSD1 [1] was 121 nM.

With `CS(=O)(=O)c1ccc(-c2cnc(NCc3ccco3)n3cnnc23)cc1` [EED226], the “Lgr5+ Assay” value in the series on Lgr5+ cells (Table 19, result in words) is given as “Activity”.

In the case of `CC(C)C[C@H](C(=O)O)c1cc(-c2ccc(C(F)(F)F)cc2)cc(-c2ccc(C(F)(F)F)cc2)c1` [JNJ-40418677], in the series with gamma secretase, the Lit cell conc was 0.18 to 0.2 µM.

Take `NC(=O)[C@@H](CCC(F)(F)F)N(Cc1ccc(-c2ncon2)cc1F)S(=O)(=O)c1ccc(Cl)cc1` [Avagacestat/BMS-708163]: the IC50 on gamma secretase (setting [6]) is 0.3 nM; at gamma secretase (setting [7]), 0.27 nM.

`C[C@H](c1ccc(F)cc1CCCC(=O)O)N(c1cc(F)ccc1F)S(=O)(=O)c1ccc(Cl)cc1` [BMS 299897]: the IC50 on gamma secretase (setting [6]) was 7.4 nM; at gamma secretase (setting [7]), 7.9 nM.

With `C[C@H](NC(=O)CCC(F)(F)F)C(=O)N[C@@H]1C(=O)N(CCO)c2ncccc2-c2ccccc21` [Crenigacestat LY 3039478], at gamma secretase (Table 23, in most of the tumor cell lines, read-out: Lit cell conc IC50), the IC50 was ~1 nM.

In the case of `CN(C)CCCNc1nc(NC2CCN(Cc3ccccc3)CC2)c2ccccc2n1` [MC2694], the IC50 at LSD1 [1] was 1000 nM.

On to `[Cl-].[Na+]` [Sodium Chloride], for which, in [2], the “Reconstitution time (minutes) water + DMSO” value turned out to be 150 min and the “Reconstitution time (minutes) with water” value stood at 150 min.

As to `COc1c(O)cc2oc3cc(O)c(CC=C(C)C)c(O)c3c(=O)c2c1CC=C(C)C` [Alpha-mangostin], the IC50 at LSD1 [1] is 2800 nM.

On to `[Ca+2].[Cl-].[Cl-]` [Calcium Chloride], for which, in series [2], the “Reconstitution time (minutes) water + DMSO” value is listed as “plugs remain at end of 180 minutes” and the “Reconstitution time (minutes) with water” value is “plugs remain at end of 180 minutes”.

With `Cc1coc2c1C(=O)C(=O)c1c-2ccc2c1CC[C@@H](O)[C@]2(C)O` [Tanshindiol C], the IC50 on EZH2 is 550 nM.

On to `COc1cc(C)[nH]c(=O)c1CNC(=O)c1c(C)n([C@H](C)C2CCN(CC(F)(F)F)CC2)c2ccccc12` [CPI-1205], for which the “Perilymph Conc” value in series [3] (Table 19) lay within 0.01 to 1 µM. For the same compound, the “Human In Vivo Conc” value in [4] (Table 19) was 25 to 250 nM.

Take `CC(C(=O)O)c1ccc2c(c1)[nH]c1ccc(Cl)cc12` (stereo not drawn) [Carprofen]: the Lit cell conc with gamma secretase was 76 µM.

`[Cl-].[K+]` [Potassium Chloride]: in series [2], the “Reconstitution time (minutes) water + DMSO” value worked out at 168 min and the “Reconstitution time (minutes) with water” value is 180 min.

As usually defined, the EC50 is the midpoint of the concentration-response curve. Regarding `O=S(=O)(N[C@H](CO)C(C(F)(F)F)C(F)(F)F)c1ccc(Cl)s1` [Begacestat/GSI-953], the EC50 was 14.8 nM on gamma secretase (Table 23, Aβ40, in cells, read-out: Lit cell conc EC50, lowers Aβ40) and 12.4 nM on gamma secretase (Table 23, Aβ42, in cells, read-out: Lit cell conc EC50, lowers Aβ42).

With `Clc1ccc(N/N=C(\c2ccccc2)c2ccccn2)nc1` [JIB-04], in the series with KDM (setting [8]), the IC50 was 220 nM.

In the case of `O=C(O)CC[C@H]1CC[C@@](c2cc(F)ccc2F)(S(=O)(=O)c2ccc(Cl)cc2)CC1` [MK-0572], the IC50 at gamma secretase (Table 23, SH-SY5Y cells, read-out: Lit cell conc IC50) is 5 nM.

Turning to `C[C@H](NC(=O)Cc1cc(F)cc(F)c1)C(=O)N[C@H](C(=O)OC(C)(C)C)c1ccccc1` [DAPT], the IC50 was 200 nM on gamma secretase (Table 23, neuronal culture, Aβ42, read-out: Lit cell conc IC50, Aβ42) and 115 nM at gamma secretase (Table 23, neuronal culture, total Aβ, read-out: Lit cell conc IC50, total Aβ).

`COc1ccc2c(c1)c(CC(=O)O)c(C)n2C(=O)c1ccc(Cl)cc1` [Indomethacin]: in the series with gamma secretase, the Lit cell conc is 25 to 50 µM.

On to `O=C(O)C1(c2ccc(-c3ccc(Cl)c(Cl)c3)c(F)c2)CC1` [CHF5074], for which the IC50 on gamma secretase (setting [6]) is 18400 nM.

On to Tanshindiol B, for which, at EZH2, the IC50 was 520 nM.

For `CCc1cc(Nc2nc(-c3ccc(-n4cnc(C)c4)c(F)c3)cs2)c(C)cc1C` [NGP 555], the Lit cell conc with gamma secretase is 0.01 µM.

`Cc1cc(C)c(CNC(=O)c2cc(Cl)c3c(c2C)O[C@@](C)([C@H]2CC[C@H](N(C)C)CC2)O3)c(=O)[nH]1` [Valemetostat]: in series [3] (Table 19), the “Perilymph Conc” value is 0.01 to 1 µM.

As for `O=C([O-])O.[Na+]` [Sodium Bicarbonate], in series [2], the “Reconstitution time (minutes) water + DMSO” value is listed as “undissolved at end of 180 minutes” and the “Reconstitution time (minutes) with water” value is listed as “undissolved at end of 180 minutes”.

As for `O=C(N/N=C/c1c(O)ccc2ccccc12)c1ccncc1` [AS 8351], the “Lgr5+ Assay” value with Lgr5+ cells (Table 21) fell in the range of 1 to 3 µM. In addition, the “Perilymph Conc” value in series [3] (Table 21) was 1 to 3 µM. Also, the “Human In Vivo Conc” value in series [4] (Table 21) was 1000 to 3000 nM.

For `COc1oc(=O)c2cc(N)ccc2c1Cl` [JLK 6], the Lit cell conc in the series on gamma secretase is 30 µM.

On to `CCOc1ccc2nc3cc(N)ccc3c(N)c2c1` [Ethacridine, reference compound], for which the “Lgr5+ Assay” value in the series on Lgr5+ cells (Table 22, result in words) is recorded as “Activity”.

As for `C#CCC(CCCCCC)C(=O)[O-].[Na+]` (stereo not drawn) [Sodium 2-(prop-2-yn-1-yl) octanoate, reference compound], the “reconstitution time of lyophilized poloxamer with added organic acid salt” value in series [2] was 420 min.

With `CC(C)[C@H](O)C(=O)N[C@@H](C)C(=O)N[C@@H]1C(=O)N(C)CCc2ccccc21` [Semagacestat LY 450139], the IC50 at gamma secretase (Table 23, Aβ38, read-out: Lit cell conc IC50, Aβ38) is 12 nM; at gamma secretase (setting [6]), 12.1 nM; on gamma secretase (setting [7]) it was 10.9 nM.

Turning to `CCc1c(N(CC)C2CCOCC2)cc2oc(C3CCN(C(C)C)CC3)cc2c1C(=O)NCc1c(C)cc(C)[nH]c1=O` [EBI-2511], at EZH2, the IC50 is 4 nM.

As for `COc1nc(-c2cc(C)c(N[C@@H](C)c3ccc(F)cc3)nn2)ccc1-n1cnc(C)c1` [BPN-15606], the IC50 at gamma secretase (setting [6]) is 17 nM; at gamma secretase (setting [7]), 7 nM.

As to `CCc1c(-c2ccccc2C)nc2c(C#N)c[nH]n2c1=O` [CPI-4203], the IC50 with KDM (setting [8]) was 1100 nM.

With `C=CCNc1nc(N)c(C(=O)c2ccc(Cl)s2)s1` [IBS008738, reference compound], the “Lgr5+ Assay” value with Lgr5+ cells (Table 22) was in the range of 1.1 to 30 µM. In addition, the “Perilymph Conc” value in series [3] (Table 22, listed concentration, no test described) is 1.1 to 30 µM.

Take `O=S(=O)(NC1CCC(c2cc(F)ccc2F)(S(=O)(=O)c2ccc(Cl)cc2)CC1)C(F)(F)F` (stereo not drawn) [MRK 560]: the Lit cell conc in the series with gamma secretase was 0.00065 µM.

On to `C#CCC(CCCCCC)C(=O)[O-].[Na+]` (stereo not drawn) [Sodium 2-(prop-2-yn-l-yl) Octanoate], for which, in series [2], the “Reconstitution time (minutes) water + DMSO” value was 4 min and the “Reconstitution time (minutes) with water” value is 4 min.

As for `CSc1ccc(/C=C2/C(C)=C(CC(=O)O)c3cc(F)ccc32)cc1` [Suldinac sulfide], the Lit cell conc in the series on gamma secretase is 34 µM.

Take `COc1ccc(CCN2CCC(Nc3nc4ccccc4n3Cc3ccc(F)cc3)CC2)cc1` [Astemizole]: the IC50 at EZH2 was 94000 nM.

As for `N[C@H]1CC[C@H](N[C@@H]2C[C@H]2c2ccccc2)CC1` [ORY-1001], in the series on Lgr5+ cells (Table 18, result in words), the “Lgr5+ Assay” value is given as “Activity”.

On to “Magnesium divalproate [reference compound]”, for which, in series [2], the “Reconstitution time (minutes) water + DMSO” value turned out to be 14 min, the “Reconstitution time (minutes) with water” value came to 14 min and the “reconstitution time of lyophilized poloxamer with added organic acid salt” value is 420 min.

For the compound `CC1=C(C(=O)OC2CCCCC2)C(c2ccc([N+](=O)[O-])cc2)C2=C(CC(C)(C)CC2=O)N1` (stereo not drawn) [FLI-06], on LSD1 [1], the IC50 is 92 nM.

As for `c1ccc([C@@H]2C[C@H]2NC2CCNCC2)cc1` [GSK-LSD1], the “Lgr5+ Assay” value with Lgr5+ cells (Table 18, lower end of concentration range) was ≥ 4 nM-. Besides, the “Perilymph Conc” value in [3] (Table 18, lower end of range) is ≥ 4 nM-; in series [3] (Table 18, range or its upper end), ≤ 50 µM. For the same compound, the “Human Plasma Conc” value in [4] (Table 18) was 1 to 100 nM.

`O=P(O)(O)O` [Potassium Phosphate]: in series [2], the “Reconstitution time (minutes) water + DMSO” value is given as “undissolved at end of 180 minutes” and the “Reconstitution time (minutes) with water” value is on record as “undissolved at end of 180 minutes”.

For the compound `[Cl-].[Cl-].[Mg+2]` [Magnesium Chloride], in series [2], the “Reconstitution time (minutes) water + DMSO” value was found to be 180 min and the “Reconstitution time (minutes) with water” value was found to be 180 min.

Regarding `CCOC(=O)CCNc1cc(N2CCc3ccccc3CC2)nc(-c2ccccn2)n1` [GSK-J4], the IC50 was 170 nM with KDM (setting [8]) and 28 nM in the series on KDM (Table 21, KDM 6, read-out: Select KDM 6).

On to `C=CC(=O)Nc1cc(Nc2nccc(-c3cn(C)c4ccccc34)n2)c(OC)cc1N(C)CCN(C)C` [Osimertinib], for which the “Literat. Cell” value on LSD1 [5] was 43 nM.
